Reference: paper PMC8587015, “AGSE: A Novel Grape Seed Extract Enriched for PP2A Activating Flavonoids That Combats Oxidative Stress and Promotes Skin Health” (Molecules, 2021)
In brackets after ≈: the same amount, converted by molar mass. Blank lines part the entries; values can stand above or below the compound they belong to.

Columns and labels:
[1] = system: NHEK-UVB-TNFα; experiment: UVB-induced TNFα release from NHEKs (ELISA); assay type: cell-based, human
Method: (§1) Primary normal human epidermal keratinocytes (NHEKs) and dermal fibroblasts (NHDFs) were purchased from ThermoFisher (Carlsbad, CA, USA) and cultured in EpiLife™ medium (NHEKs) supplemented with Human Keratinocyte Growth Supplement (HKGS) or DMEM (NHDFs) + 10% FBS. All cell types were seeded in plates with growth factor-supplemented medium for 24 h and later media was replaced with growth factor-depleted media for an additional 24 h before treatments and grown at normal conditions (5% CO2; 37 °C).
(§2) Cells were pre-incubated for 2–6 h with test materials (1% v/v ethanol vehicle) in fresh growth factor-depleted media in triplicates. NHEKs were induced by 5 ng/mL TPA for 24 h or irradiated with 25 mJ/cm^2 (15 s) broadband 305–12 nm UVB (Daavlin; Bryan, OH, USA) without test materials and incubated for an additional 18 h. NHDFs were irradiated with 12.5 J/cm^2 UVA (350–12 nm; 40 min) and later incubated without test materials for an additional 18 h. Media supernatants were harvested after induction and used to measure levels of Interleukin-6 (IL-6), Interleukin-8 (IL-8), collagenase (pro-MMP1) or tumor necrosis factor-α (TNF-α) by sandwich ELISA kits (BD Biosciences; San Jose, CA, USA or R&D Systems; Minneapolis, MN, USA). Cells were subjected to viability tests by MTS reduction assay (Promega; Madison, WI, USA).
(§3) Statistical significance was determined by ANOVA followed by a Dunnett multiple comparisons test using p-values less than 0.05 as a significant difference. For all biochemical measurements and cytokine levels, samples were assayed in triplicate. Cytokine dose–response curves were generated by fitting data with the Hill, three-parameter equation using the Sigma Plot software, from which the IC50 and maximum inhibition were determined.

[2] = system: NHEK-UVB-IL-8; experiment: UVB-induced IL-8 release from NHEKs (ELISA); assay type: cell-based, human
Method: as §1, §2, §3

[3] = system: NHDFs-UVA-IL-6; experiment: UVA-induced IL-6 release from NHDFs (ELISA); assay type: cell-based, human
Method: as §1, §2, §3

[4] = system: NHDFs intracellular ROS; experiment: Intracellular antioxidant assay (DCFH-DA) in NHDFs after H2O2 induction; assay type: cell-based, human; settings: 3 h pre-incubation
Description: (§4) Radical scavenging antioxidant assay was estimated using the colorimetric antioxidant assay kit obtained from Cayman Chemical Company (Ann Arbor, MI, USA). ABTS (2, 2′-Azino-bis-[3-ehthylbenzthiazoline sulphonate]) was used as the chromogen, which changes into a colored monocation radical form (ABTS^•+) by metmyoglobin in the presence of hydrogen peroxide, and monitored by measuring absorption at 750 nm using a plate reader (Envision-PerkinElmer; Waltham, MA, USA). Antioxidant inhibition was calculated based on the discoloration of ABTS by serial concentrations of test compounds added simultaneously with myoglobin and hydrogen peroxide. NHDF cells were cultured in DMEM with 10% fetal bovine serum (FBS) and seeded into black wall 96-well plates and incubated for 24 h before treatment. Cells were pre-treated for 3 h with and without test compounds (0.01–3 µM final concentrations) and labeled with 50 µM of dichloro-dihydro-fluorescein diacetate (DCFH-DA). Total fluorescence (Excitation = 485 nm; Emission = 535 nm) was measured after cells were co-incubated for 20 min with 0.1 mM H2O2 and the test compounds. Cell protection against oxidative stress was calculated using the following formula: Cell protection (%) = [(test compound (%) − hydrogen peroxide-only (%))/([…] − untreated control (%))] × 100.

[5] = Cell-free antioxidant ABTS assay by metmyoglobin; assay type: biochemical
Description: as §4

[6] = target: T1, PME-1 (Protein phosphatase methylesterase 1) (Homo sapiens, UniProt Q9Y570); experiment: Demethylation of PP2A by PME-1, radioactive filter binding assay; assay type: biochemical; settings: GSE flavonoids / grape seed components; read-out: IC50, PP2A demethylation activity assay
T1 sequence (Q9Y570 1-386): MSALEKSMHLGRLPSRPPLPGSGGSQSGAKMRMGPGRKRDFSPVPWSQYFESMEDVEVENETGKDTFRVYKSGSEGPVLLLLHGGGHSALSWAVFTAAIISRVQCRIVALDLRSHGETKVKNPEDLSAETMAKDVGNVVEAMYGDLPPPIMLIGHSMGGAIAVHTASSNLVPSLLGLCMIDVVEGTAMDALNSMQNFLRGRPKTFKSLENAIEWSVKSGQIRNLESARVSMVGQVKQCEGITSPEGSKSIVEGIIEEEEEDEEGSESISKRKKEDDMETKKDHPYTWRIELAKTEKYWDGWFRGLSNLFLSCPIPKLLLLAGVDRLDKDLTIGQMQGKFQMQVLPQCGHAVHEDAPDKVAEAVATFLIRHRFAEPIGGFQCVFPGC
Method: [^3H]-labeled methylated PP2A AC dimer was prepared by incubating PP2A, LCMT1 and [^3H]-SAM (PerkinElmer; Waltham, MA, USA) in 50 mM MOPS-Na (pH 7.2), 5 mM MgCl2, and 1 mM DTT at room temperature for 1 h. Demethylation of PP2A by PME-1 (Protein phosphatase methylesterase 1) was measured using the radioactive filter binding assay format. 20 nM PME-1 was incubated for 15 min with extract or compound, then 20 nM of [^3H]-labeled methylated PP2A AC dimer was added. Reactions were run at room temperature for 30 min then applied to a 96-well filter plate (MilliporeSigma; Burlington, MA, USA.) containing 30% TCA where proteins were precipitated and separated from the excess of [^3H]-SAM by washing with 70% ethanol. [^3H]-incorporation was measured using TopCount NXT scintillation counter (PerkinElmer; Waltham, MA, USA). IC50 values were generated from dose–response curves using a four-parameter logistic curve fit in SigmaPlot (Systat Software, Inc., Palo Alto, CA, USA).

[7] = system: NHEK-TPA-IL-8; experiment: TPA-induced IL-8 release from NHEKs (ELISA); assay type: cell-based, human; settings: 5 ng/mL TPA, 24 h
Method: as §1
Cells were pre-incubated for 2–6 h with test materials (1% v/v ethanol vehicle) in fresh growth factor-depleted media in triplicates. NHEKs were induced by 5 ng/mL TPA for 24 h or irradiated with 25 mJ/cm^2 (15 s) broadband 305–12 nm UVB (Daavlin; Bryan, OH, USA) without test materials and incubated for an additional 18 h. NHDFs were irradiated with 12.5 J/cm^2 UVA (350–12 nm; 40 min) and later incubated without test materials for an additional 18 h. […]
as §3, with “For all biochemical measurements and cytokine levels, samples were assayed in triplicate.” left out

[8] = Homo sapiens, NHEK, light or radiation study, UVB 25 mJ/cm^2

Compound: O=C1O[C@H]([C@@H](O)CO)C(O)=C1O [Vitamin C]
- IC50 NHEK-UVB-TNFα ([1]; UVB 25 mJ/cm^2): >10 µg/mL
- IC50 NHEK-UVB-IL-8 ([2]; UVB 25 mJ/cm^2): >10 µg/mL
- IC50 NHDFs-UVA-IL-6 ([3]; UVA 12.5 J/cm^2): >10 µg/mL
- IC50, intracellular oxidative stress [4]: 0.6 µg/mL (≈ 3.41 µM)
- IC50, H2O2-induced free radical ROS production [5]: 10.1 µg/mL (≈ 57.3 µM)

Compound: Cc1c(C)c2c(c(C)c1O)CC[C@@](C)(CCC[C@H](C)CCC[C@H](C)CCCC(C)C)O2 [Vitamin E, α-tocopherol]
- IC50 ([4]; Homo sapiens, NHDF, read-out: IC50, intracellular oxidative stress): > 100 µg/mL
- IC50, H2O2-induced free radical ROS production [5]: 18.6 µg/mL (≈ 43.2 µM)

Further lines, with some results ahead:

- IC50 NHEK-UVB-TNFα ([1]; UVB 25 mJ/cm^2): <0.01 µg/mL
- IC50 [6]: > 15 µM
- IC50 NHEK-UVB-IL-8 ([2]; UVB 25 mJ/cm^2): <0.01 µg/mL
- IC50 NHDFs-UVA-IL-6 ([3]; UVA 12.5 J/cm^2): 0.01 µg/mL (≈ 0.0515 µM)
Compound: COc1cc(/C=C/C(=O)O)ccc1O [Ferulic acid]

- IC50 NHEK-TPA-IL-8 [7]: 0.0005 ng/mL (≈ 1.22e-06 µM)
Compound: C[C@H]1C[C@H]2[C@@H]3CCC4=CC(=O)C=C[C@]4(C)[C@@]3(F)[C@@H](O)C[C@]2(C)[C@@]1(O)C(=O)CCl [Clobetasol]

- IC50 [1, 8]: > 1 µg/mL
- IC50 [2, 8]: > 1 µg/mL
- IC50 ([3]; Homo sapiens, NHDF, light or radiation study, UVA 12.5 J/cm^2): > 1 µg/mL
Compound: CC1=C(/C=C/C(C)=C/C=C/C(C)=C/C(=O)O)C(C)(C)CCC1 [ATRA, all-trans retinoic acid]
- effect on UVB-induced TNFα release (in words) ([1]; highest non-toxic dose tested): did not have any effect
- effect on UVB-induced IL-8 release (in words) ([2]; highest non-toxic dose tested): did not have any effect
- effect on UVA-induced IL-6 release (in words) ([3]; highest non-toxic dose tested): did not have any effect
